Read-outs that look alike come from different tables or passages of the source.
Tests used:
AGS cells (K-Ras G12D) [1] = test: Phospho-ERK1/2(THR202/TYR204) HTRF assay; type: cell-based; settings: Homo sapiens, 2 hours incubation, read-out: p-ERK, IC50 AGS
Description: (§1) p-ERK (MAPK pathway) inhibition activity of each of compounds in a variety of K-Ras mutant and K-Ras WT cell lines indicated in Table 12 was evaluated. MKN-1 with K-Ras WT amplification is also a K-Ras dependent cell line.
(§2) Each of cells in culture medium was seeded in 96-well plates at density indicated in Table 16 and then put in a cell incubator to incubate overnight. The next day, the culture medium was removed and the compound diluted in assay medium was added in each well. After 2 hours incubation in a cell incubator, the assay medium in 96-well plates was removed, then 50 μL of 1× blocking reagent-supplemented lysis buffer (Cisbio) was added and the plates were incubated at 25° C. for 45 min with shaking. 10 μL of cell lysates from the 96-well plates were transferred to a 384-well plate (Greiner) containing […] HTRF® pre-mixed antibodies (Cisbio 64AERPEH). The plate was incubated 4 hours at 25° C. and then read HTRF signals on Tecan Spark multimode microplate reader. The data were analyzed using a 4-parameter logistic model to calculate IC50 values.

SW620 cells (K-Ras G12V) [2] = test: Phospho-ERK1/2(THR202/TYR204) HTRF assay; type: cell-based; settings: Homo sapiens, SW-620, 2 hours incubation, read-out: p-ERK, IC50 SW620
Description: as §1, §2

AGS cells (K-Ras G12D) [3] = test: 2D cell growth inhibition assay (CellTiter-Glo); type: cell-based; settings: Homo sapiens, 6 days, absolute IC50
Description: (§3) The cell growth inhibition activity of each of compounds was tested by performing cell growth inhibition assays on a variety of K-Ras mutant and K-Ras WT cell lines indicated in Table 14.
(§4) Each of cells in culture medium was plated in TC-treated 96-well plates at a density indicated in Table 14 and incubated in a cell incubator overnight. The next day, each of compounds was diluted in culture medium and added to the plates. After 6 days incubation in cell incubator, the cell viability was detected by CellTiter-Glo® Cell Viability Assay kit (Promega).

[4] = test system: AsPC-1 cells (K-Ras G12D); test: 2D cell growth inhibition assay (CellTiter-Glo); type: cell-based; settings: Homo sapiens, ASPC1, AsPC-1 (G12D), 6 days, absolute IC50
Description: as §3, §4

SW620 cells (K-Ras G12V) [5] = test: 2D cell growth inhibition assay (CellTiter-Glo); type: cell-based; settings: Homo sapiens, SW-620, 6 days, absolute IC50
Description: as §3, §4

K-Ras G12D [6] = target: T1, K-Ras G12D (Homo sapiens, UniProt P01116, G12D); test: biochemical
T1 sequence (P01116 1-169 isoform P01116-2 G12D): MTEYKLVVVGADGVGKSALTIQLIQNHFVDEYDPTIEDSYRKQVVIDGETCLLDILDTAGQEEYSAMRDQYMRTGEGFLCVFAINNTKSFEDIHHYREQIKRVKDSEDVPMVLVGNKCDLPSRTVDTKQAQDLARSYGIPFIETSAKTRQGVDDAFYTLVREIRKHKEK

K-Ras G12V [7] = target: T2, K-Ras G12V (Homo sapiens, UniProt P01116, G12V); test: biochemical
T2 sequence (P01116 1-169 isoform P01116-2 G12V): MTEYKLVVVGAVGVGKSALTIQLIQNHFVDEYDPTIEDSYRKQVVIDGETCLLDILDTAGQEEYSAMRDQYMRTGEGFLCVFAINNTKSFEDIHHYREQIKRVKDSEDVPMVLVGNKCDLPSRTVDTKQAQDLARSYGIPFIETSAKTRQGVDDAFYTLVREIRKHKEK

K-Ras G12D [8] = target: T1, K-Ras G12D; test: biochemical; remark: listed apart in the source
K-Ras G12V [9] = target: T2, K-Ras G12V; test: biochemical; remark: listed apart in the source

| Compound | IC50 (AGS cells (K-Ras G12D) [1]) [nM] | IC50 (SW620 cells (K-Ras G12V) [2]) [nM] | IC50 (AGS cells (K-Ras G12D) [3]) [nM] | IC50 [4] [nM] | IC50 (SW620 cells (K-Ras G12V) [5]) [nM] | IC50 (K-Ras G12D [6]) [nM] | IC50 (K-Ras G12V [7]) [nM] | IC50 (K-Ras G12D [8]) [nM] | IC50 (K-Ras G12V [9]) [nM] |
| --- | --- | --- | --- | --- | --- | --- | --- | --- | --- |
| CCc1c(F)ccc2cc(O)cc(-c3cc4c5c(nc(OC[C@@]67CCCN6C[C@H](F)C7)nc5c3F)N3CCOCCC3CO4)c12 (some centres unmarked) [Compound 4] | – | – | – | – | – | 32.7 | 14.7 | > 1000 | > 1000 |
| C#Cc1c(F)ccc2cc(O)cc(-c3nc4c5c(nc(OC[C@@]67CCCN6C[C@H](F)C7)nc5c3F)N3C5COCCC3(CO4)C5)c12 (some centres unmarked) [Compound 16] | – | – | – | – | – | 57.4 | 43.5 | > 1000 | > 1000 |
| C#Cc1c(F)ccc2cc(O)cc(-c3nc4c5c(nc(OC[C@@]67CCCN6C[C@H](F)C7)nc5c3F)N3CCCOCC3CO4)c12 (some centres unmarked) [Compound 3] | 2.02 | 4.61 | 1.73 | 19.6 | 3.32 | – | – | – | – |
| CCc1c(F)ccc2cc(O)cc(-c3nc4c5c(nc(OC[C@@]67CCCN6C[C@H](F)C7)nc5c3F)N3CCOCC3CO4)c12 (some centres unmarked) [Compound 14] | 39.4 | 42.3 | 105 | 702 | 23.9 | – | – | – | – |
| C#Cc1c(F)ccc2cc(O)cc(-c3nc4c5c(nc(OC[C@@]67CCCN6C[C@H](F)C7)nc5c3F)N3CCCOC[C@H]3CN4C)c12 [Compound 9] | 6.58 | 18.6 | 6.8 | 64.4 | 7.67 | – | – | – | – |
| C#Cc1c(F)ccc2cc(O)cc(-c3cc4c5c(nc(OC[C@@]67CCCN6C[C@H](F)C7)nc5c3F)N3CCOCCC3CO4)c12 (some centres unmarked) [Compound 1] | 16.2 | 38.2 | 326 | 987 | 100 | – | – | – | – |
| C#Cc1c(F)ccc2cc(O)cc(-c3nc4c5c(nc(OCC67CCCN6CC(F)C7)nc5c3F)N3CCOCCC3CO4)c12 (centres unmarked) [Compound 2] | 2.33 | 5.2 | 5.07 | 134 | 13.1 | – | – | – | – |
| C#Cc1c(F)ccc2cc(O)cc(-c3nc4c5c(nc(OC[C@@]67CCCN6C[C@H](F)C7)nc5c3F)N3CCOCC3CCO4)c12 (some centres unmarked) [Compound 12] | 48 | 128 | 83.4 | 810 | 91.2 | – | – | – | – |

The remaining compounds from weak to strong by IC50 (AGS cells (K-Ras G12D) [1]), led by results:

| IC50 (AGS cells (K-Ras G12D) [1]) [nM] | IC50 (SW620 cells (K-Ras G12V) [2]) [nM] | IC50 (AGS cells (K-Ras G12D) [3]) [nM] | IC50 [4] [nM] | IC50 (SW620 cells (K-Ras G12V) [5]) [nM] | Compound | IC50 (K-Ras G12D [6]) [nM] | IC50 (K-Ras G12V [7]) [nM] | IC50 (K-Ras G12D [8]) [nM] | IC50 (K-Ras G12V [9]) [nM] |
| --- | --- | --- | --- | --- | --- | --- | --- | --- | --- |
| 26.3 | 16.8 | 31.8 | 346 | 25 | C#Cc1c(F)ccc2cc(O)cc(-c3nc4c5c(nc(OC[C@@]67CCCN6C[C@H](F)C7)nc5c3F)N3CCOCC3CO4)c12 (some centres unmarked) [Compound 11] | – | – | – | – |
| 23 | 50.1 | – | – | – | C#Cc1c(F)ccc2cc(O)cc(-c3nc4c5c(nc(OC[C@@]67CCCN6C[C@H](F)C7)nc5c3F)N3CCCCC3CCO4)c12 (some centres unmarked) [Compound 23] | – | – | – | – |
| 19.7 | 60.6 | 99 | 547 | 35.1 | C#Cc1c(F)ccc2cc(O)cc(-c3nc4c5c(nc(OC[C@@]67CCCN6C[C@H](F)C7)nc5c3F)N3CCCC3CO4)c12 (some centres unmarked) [Compound 21] | – | – | – | – |
| 2.32 | 5.13 | – | – | – | C#Cc1c(F)ccc2cc(O)cc(-c3nc4c5c(nc(OC[C@@]67CCCN6C[C@H](F)C7)nc5c3F)N3CCCCC3CO4)c12 (some centres unmarked) [Compound 19] | – | – | – | – |
| 1.5 | 10 | 7.57 | 80.1 | 5.61 | C#Cc1c(F)ccc2cc(O)cc(-c3nc4c5c(nc(OC[C@@]67CCCN6C[C@H](F)C7)nc5c3F)N3CCCOC[C@@H]3CO4)c12 [Compound 6] | – | – | – | – |
| 1.38 | 3.05 | 2.59 | 15.6 | 1.32 | C#Cc1c(F)ccc2cc(O)cc(-c3nc4c5c(nc(OC[C@@]67CCCN6C[C@H](F)C7)nc5c3F)N3CCCCCC3CO4)c12 (some centres unmarked) [Compound 22] | – | – | – | – |
| 0.691 | 2.01 | 1.23 | 10.2 | 1.49 | C#Cc1c(F)ccc2cc(O)cc(-c3nc4c5c(nc(OC[C@@]67CCCN6C[C@H](F)C7)nc5c3F)N3CCCCC[C@H]3CO4)c12 [Compound 20] | – | – | – | – |
| 0.525 | 1.03 | 0.466 | – | 0.819 | C#Cc1c(F)ccc2cc(O)cc(-c3nc4c5c(nc(OC[C@@]67CCCN6C[C@H](F)C7)nc5c3F)N3CCCOC[C@H]3CO4)c12 [Compound 5] | – | – | – | – |
